Data reported in patent US10828316B2, “Method of treating bacterial infections” (priority 2016, dated 2020).
Converted amounts (≈) assume the structure as drawn. Where two headings read alike, the source gives them in different places.

Tests used:
S. epidermidis EN0456 = assay: MIC; format: cell-based, Staphylococcus epidermidis
E. coli EN0001 = assay: MIC; format: cell-based
A. baumannii EN0007 = assay: MIC; format: cell-based, A. baumanii
S. flexneri APV00907 = assay: MIC; format: cell-based; conditions: S. flexneri APV00907
P. aeruginosa EN015 = assay: MIC; format: cell-based, Pseudomonas aeruginosa
E. aerogenes EN0461 = assay: MIC; format: cell-based, Enterobacter aerogenes
E. coli EN002 = assay: MIC; format: cell-based, Escherichia coli
Citrobacter sp. EN0465 = assay: MIC; format: cell-based; conditions: in FdUrd+trimethoprim+uridine combination
P. mirabilis ST19 EN0445 = assay: MIC; format: cell-based, Proteus mirabilis; conditions: in FdUrd+trimethoprim+uridine combination
S. typhimurium EN0466 = assay: MIC; format: cell-based, Salmonella typhimurium
E. coli EN001 = assay: MIC; format: cell-based, Escherichia coli
K. oxytoca EN0392 = assay: MIC; format: cell-based, Klebsiella oxytoca
S. sonnei APV00908 = assay: MIC; format: cell-based; conditions: S. sonnei APV00908
P. aeruginosa EN0004 = assay: MIC; format: cell-based
K. pneumoniae EN006 = assay: MIC; format: cell-based, Klebsiella pneumoniae
S. aureus EN008 = assay: MIC; format: cell-based, Staphylococcus aureus; conditions: in FdUrd+trimethoprim+uridine combination
[1] = test system: Helicobacter pylori ATTC43504; assay: MIC; format: cell-based
Source text: (§1) Inhibition of Heliobacter is important in view of increasing resistance and its association to gastric cancer.

[2] = test system: Helicobacter pylori APV00918; assay: MIC; format: cell-based; conditions: in FdUrd+trimethoprim+uridine combination
Source text: as §1

K. pneumoniae EN0463 = assay: MIC; format: cell-based, Klebsiella pneumoniae
E. coli EN012 = assay: MIC; format: cell-based, Escherichia coli
K. pneumoniae EN011 = assay: MIC; format: cell-based, Klebsiella pneumoniae
K. pneumoniae EN0436 = assay: MIC; format: cell-based
K. pneumoniae EN0244 = assay: MIC; format: cell-based; conditions: in FdUrd+trimethoprim+uridine combination
K. pneumoniae EN0233 = assay: MIC; format: cell-based
K. pneumoniae EN0401 = assay: MIC; format: cell-based
S. flexneri APV00906 = assay: MIC; format: cell-based; conditions: S. flexneri APV00906
A. baumannii EN017 = assay: MIC; format: cell-based, Acinetobacter baumannii
K. pneumoniae EN0143 = assay: MIC; format: cell-based; conditions: in FdUrd+trimethoprim+uridine combination
K. pneumoniae EN010 = assay: MIC; format: cell-based, Klebsiella pneumoniae
E. coli B EN0458 = assay: MIC; format: cell-based, Escherichia coli B
K. pneumoniae EN0145 = assay: MIC; format: cell-based; conditions: in FdUrd+trimethoprim+uridine combination
K. pneumoniae EN0006 = assay: MIC; format: cell-based
P. aeruginosa EN0422 = assay: MIC; format: cell-based, Pseudomonas aeruginosa; conditions: in FdUrd+trimethoprim+uridine combination
A. baumannii EN016 = assay: MIC; format: cell-based, Acinetobacter baumannii; conditions: in FdUrd+trimethoprim+uridine combination
E. coli EN013 = assay: MIC; format: cell-based, Escherichia coli
P. aeruginosa EN0460 = assay: MIC; format: cell-based, Pseudomonas aeruginosa; conditions: in FdUrd+trimethoprim+uridine combination
E. coli ATCC 25922 = assay: MIC, in vitro sensitivity of the strain used in vivo; conditions: Escherichia coli
[3] = in FdUrd+trimethoprim+uridine combination
[4] = Combination 1 (AZT+trimethoprim+uridine)
[5] = in didanosine+trimethoprim+uridine combination
[6] = in AZT+trimethoprim+uridine combination
[7] = Combination 2 (same mixed with thymidine)

Compound: O=c1[nH]c(=O)n([C@H]2C[C@H](O)[C@@H](CO)O2)cc1F [FdUrd]
- MIC (S. epidermidis EN0456; [3]): <0.008 µg/mL
- MIC (E. coli EN0001; [3]): 0.25 µg/mL
- MIC (A. baumannii EN0007; [3]): >4 µg/mL
- MIC (S. flexneri APV00907; [3]): >4 µg/mL
- MIC (P. aeruginosa EN015; P. aeruginosa EN015, in FdUrd+trimethoprim+uridine combination): 1 µg/mL
- MIC (E. aerogenes EN0461; [3]): 1 µg/mL
- MIC (E. coli EN002; [3]): 0.032 µg/mL
- MIC (Citrobacter sp. EN0465): >4 µg/mL
- MIC (P. mirabilis ST19 EN0445): 0.5 µg/mL
- MIC (S. typhimurium EN0466; [3]): 0.125 µg/mL
- MIC (E. coli EN001; [3]): 0.125 µg/mL
- MIC (K. oxytoca EN0392; [3]): 0.125 µg/mL
- MIC (S. sonnei APV00908; [3]): >4 µg/mL
- MIC (P. aeruginosa EN0004; [3]): >4 µg/mL
- MIC (K. pneumoniae EN006; [3]): 0.5 µg/mL
- MIC (S. aureus EN008): <8 ng/mL
- MIC [1, 3]: 0.06 µg/mL
- MIC [2]: 0.06 µg/mL
- MIC (K. pneumoniae EN0463; [3]): 0.25 µg/mL
- MIC (E. coli EN012; [3]): 0.032 µg/mL
- MIC (K. pneumoniae EN011; K. pneumoniae EN011, in FdUrd+trimethoprim+uridine combination): 0.064 µg/mL
- MIC (K. pneumoniae EN0436; [3]): 0.25 µg/mL
- MIC (K. pneumoniae EN0244): >4 µg/mL
- MIC (K. pneumoniae EN0233; [3]): 0.5 µg/mL
- MIC (K. pneumoniae EN0401; [3]): >4 µg/mL
- MIC (S. flexneri APV00906; [3]): >4 µg/mL
- MIC (A. baumannii EN017; A. baumannii EN017, in FdUrd+trimethoprim+uridine combination): 0.5 µg/mL
- MIC (K. pneumoniae EN0143): >4 µg/mL
- MIC (K. pneumoniae EN010; [3]): 0.5 µg/mL
- MIC (E. coli B EN0458; [3]): 0.032 µg/mL
- MIC (K. pneumoniae EN0145): >4 µg/mL
- MIC (K. pneumoniae EN0006; [3]): 0.5 µg/mL
- MIC (P. aeruginosa EN0422): >4 µg/mL
- MIC (A. baumannii EN016): 4 µg/mL
- MIC (E. coli EN013; E. coli EN013, in FdUrd+trimethoprim+uridine combination): 0.016 µg/mL
- MIC (P. aeruginosa EN0460): >4 µg/mL

Compound: COc1cc(Cc2cnc(N)nc2N)cc(OC)c1OC [Trimethoprim, trimethoprim]
- MIC (S. epidermidis EN0456; [4]): 0.064 µg/mL
- MIC (S. epidermidis EN0456; [5]): 0.125 µg/mL
- MIC (E. coli ATCC 25922; ATCC25922, read-out: MIC against E. coli ATCC 25922, Plate C: TMP alone): 0.5 µg/mL (≈ 1.72 µM)
- MIC (E. coli ATCC 25922; ATCC25922, read-out: MIC against E. coli ATCC 25922, Plate F: TMP with 2 μg/ml thymidine): 1 µg/mL (≈ 3.44 µM)
- MIC (E. coli ATCC 25922; ATCC25922, read-out: MIC against E. coli ATCC 25922: TMP, Plate A: AZT + TMP with 50 μg/ml uridine): 0.06 µg/mL
- MIC (E. coli ATCC 25922; ATCC25922, read-out: MIC against E. coli ATCC 25922: TMP, Plate D: AZT + TMP with 50 μg/ml uridine and 2 μg/ml thymidine): 0.5 µg/mL
- MIC (E. coli EN0001; [6]): 0.125 µg/mL
- MIC (E. coli EN0001; [3]): 0.5 µg/mL
- MIC (E. coli EN0001; [5]): 0.5 µg/mL
- MIC (A. baumannii EN0007; [6]): >4 µg/mL
- MIC (A. baumannii EN0007; [3]): >8 µg/mL
- MIC (A. baumannii EN0007; [5]): >8 µg/mL
- MIC (S. flexneri APV00907; [6]): 2 µg/mL
- MIC (S. flexneri APV00907; [3]): >8 µg/mL
- MIC (P. aeruginosa EN015; Pseudomonas aeruginosa, EN015, P. aeruginosa EN015, Combination 1 (AZT+trimethoprim+uridine)): 2 µg/mL
- MIC (P. aeruginosa EN015; Pseudomonas aeruginosa, EN015, P. aeruginosa EN015, Combination 2 (same mixed with thymidine)): 2 µg/mL
- MIC (P. aeruginosa EN015; Pseudomonas aeruginosa, EN015, P. aeruginosa EN015, in AZT+trimethoprim+uridine combination): 2 µg/mL
- MIC (P. aeruginosa EN015; Pseudomonas aeruginosa, EN015, P. aeruginosa EN015, in FdUrd+trimethoprim+uridine combination): 2 µg/mL
- MIC (P. aeruginosa EN015; Pseudomonas aeruginosa, EN015, P. aeruginosa EN015, in didanosine+trimethoprim+uridine combination): 2 µg/mL
- MIC (E. aerogenes EN0461; [4]): 0.25 µg/mL
- MIC (E. aerogenes EN0461; [6]): 0.25 µg/mL
- MIC (E. coli EN002; [7]): 0.125 µg/mL
- MIC (E. coli EN002; [3]): 0.064 µg/mL
- MIC (E. coli EN002; [5]): 0.064 µg/mL
- MIC (S. typhimurium EN0466; [4]): 0.064 µg/mL
- MIC (S. typhimurium EN0466; [3]): 0.25 µg/mL
- MIC (E. coli EN001; [4]): 0.064 µg/mL
- MIC (E. coli EN001; [3]): 0.25 µg/mL
- MIC (E. coli EN001; [5]): 0.25 µg/mL
- MIC (K. oxytoca EN0392; [4]): 0.064 µg/mL
- MIC (K. oxytoca EN0392; [3]): 0.25 µg/mL
- MIC (S. sonnei APV00908; [6]): 0.03 µg/mL
- MIC (S. sonnei APV00908; [3]): >8 µg/mL
- MIC (P. aeruginosa EN0004; [6]): >4 µg/mL
- MIC (P. aeruginosa EN0004; [3]): >8 µg/mL
- MIC (P. aeruginosa EN0004; [5]): >8 µg/mL
- MIC (K. pneumoniae EN006; [4]): 0.125 µg/mL
- MIC [1, 6]: 0.125 µg/mL
- MIC [1, 3]: 0.125 µg/mL
- MIC [2]: 0.125 µg/mL
- MIC (K. pneumoniae EN0463; [4]): 0.125 µg/mL
- MIC (K. pneumoniae EN0463; [7]): 0.25 µg/mL
- MIC (E. coli EN012; [3]): 0.064 µg/mL
- MIC (E. coli EN012; [5]): 0.125 µg/mL
- MIC (K. pneumoniae EN011; Klebsiella pneumoniae, EN011, K. pneumoniae EN011, Combination 1 (AZT+trimethoprim+uridine)): 0.032 µg/mL
- MIC (K. pneumoniae EN011; Klebsiella pneumoniae, EN011, K. pneumoniae EN011, Combination 2 (same mixed with thymidine)): 0.25 µg/mL
- MIC (K. pneumoniae EN011; Klebsiella pneumoniae, EN011, K. pneumoniae EN011, in AZT+trimethoprim+uridine combination): 0.125 µg/mL
- MIC (K. pneumoniae EN011; Klebsiella pneumoniae, EN011, K. pneumoniae EN011, in FdUrd+trimethoprim+uridine combination): 0.125 µg/mL
- MIC (K. pneumoniae EN011; Klebsiella pneumoniae, EN011, K. pneumoniae EN011, in didanosine+trimethoprim+uridine combination): 0.25 µg/mL
- MIC (K. pneumoniae EN0436; [6]): 0.125 µg/mL
- MIC (K. pneumoniae EN0233; [6]): 0.25 µg/mL
- MIC (K. pneumoniae EN0401; [3]): >8 µg/mL
- MIC (K. pneumoniae EN0401; [5]): >8 µg/mL
- MIC (S. flexneri APV00906; [6]): 1 µg/mL
- MIC (S. flexneri APV00906; [3]): >8 µg/mL
- MIC (A. baumannii EN017; Acinetobacter baumannii, EN017, A. baumannii EN017, Combination 1 (AZT+trimethoprim+uridine)): 1 µg/mL
- MIC (A. baumannii EN017; Acinetobacter baumannii, EN017, A. baumannii EN017, Combination 2 (same mixed with thymidine)): 1 µg/mL
- MIC (A. baumannii EN017; Acinetobacter baumannii, EN017, A. baumannii EN017, in AZT+trimethoprim+uridine combination): 1 µg/mL
- MIC (A. baumannii EN017; Acinetobacter baumannii, EN017, A. baumannii EN017, in FdUrd+trimethoprim+uridine combination): 1 µg/mL
- MIC (A. baumannii EN017; Acinetobacter baumannii, EN017, A. baumannii EN017, in didanosine+trimethoprim+uridine combination): 2 µg/mL
- MIC (K. pneumoniae EN010; [4]): 0.25 µg/mL
- MIC (E. coli B EN0458; [3]): 0.064 µg/mL
- MIC (E. coli B EN0458; [5]): 0.064 µg/mL
- MIC (K. pneumoniae EN0006; [6]): 0.25 µg/mL
- MIC (K. pneumoniae EN0006; [3]): 1 µg/mL
- MIC (K. pneumoniae EN0006; [5]): 1 µg/mL
- MIC (E. coli EN013; Escherichia coli, EN013, E. coli EN013, Combination 1 (AZT+trimethoprim+uridine)): < 0.008 µg/mL
- MIC (E. coli EN013; Escherichia coli, EN013, E. coli EN013, Combination 2 (same mixed with thymidine)): < 0.008 µg/mL
- MIC (E. coli EN013; Escherichia coli, EN013, E. coli EN013, in AZT+trimethoprim+uridine combination): < 0.008 µg/mL
- MIC (E. coli EN013; Escherichia coli, EN013, E. coli EN013, in FdUrd+trimethoprim+uridine combination): 0.032 µg/mL
- MIC (E. coli EN013; Escherichia coli, EN013, E. coli EN013, in didanosine+trimethoprim+uridine combination): 0.032 µg/mL
